In patent US6946475B1, “Anticancer calcium channel blockers” (University of Virginia Patent Foundation, priority 1999, dated 2005):
Read-outs that look alike come from different tables or passages of the source.

Experiments:
[1] = test system: Hep G2 (liver cancer cell); test: Measurement of cellular proliferation, Hep G2 cells; format: cell-based; settings: Hep G2, 48 hours
Experimental: (§1) Measurement of cellular proliferation: LNCaP cells at 2.5×10^4/well or PC3 cells at 5×10^4/well, both in a final volume of 100 μl, were plated in triplicate in standard flat bottom 96 well tissue culture plates in the presence of drug or vehicle (DMSO). Unless otherwise indicated, cells were grown for 48 hours at 37° C. in a CO2 incubator. Relative cell growth was determined with the CellTiter 96 aqueous cell proliferation assay (Promega, Madison, Wis.) as described by the manufacturer using an automated plate reader. Results were calculated in a blinded fashion and are means of triplicate determinations.
(§2) For the 48 hour proliferation, cells were cultured with calcium channel antagonists or without calcium channel antagonists. The IC50 values of the calcium channel antagonists were determined.
(§3) Using the measurement cell proliferation assay described hereinabove, the cell lines Jurkat, LNCap (prostate cancer cell), PC-31 (prostate cancer cell), DU145 (prostate cancer cell), MDA-468 (breast cancer cell), MDA-36 (Breast cancer cell), MCF-7 (breast cancer cell), MIA PaCa-2 (pancreatic cancer cell), Hep G2 (liver cancer cell), A549 (non-small cell lung cancer cells), NCI H460 (non-small cell lung cancer cells), HT-29 (colon cancer cell), HCT-116 (colon cancer cell) and SK OV-3 (ovarian cancer cell) were cultured in the presence of TH-1177, TH-1205, TH-1201, TH-2109, TH-2029, TH-2043, TN-2085 and TH-2279.

[2] = test system: PC3 prostate cancer cells; test: Measurement of cellular proliferation, PC3 cells; format: cell-based, human
Experimental: as §1, §2, §3

[3] = test system: Ca2+ entry in LNCaP cells; test: Measurement of intracellular Ca2+ concentration (Ca2+ entry), LNCaP cells; format: cell-based, human
Experimental: Cells were incubated in growth media containing 1 μM of the acetoxy-methyl ester of the Ca^2+-sensitive fluorescent dye indo-1 (indo-1/AM, Molecular Probes, Eugene, Oreg.) for 1 hour at 37° C. Cells were washed three times in buffer A (10 mM HEPES, pH 7.4, 1 mM MgCl2, 3 mM KCl, 1 mM CaCl2, 140 mM NaCl, 0.1% glucose, 1% fetal bovine serum) and suspended to a final concentration of 10^6/ml. Prior to stimulation, cells were warmed to 37° C. Prior to stimulation, cells were also incubated with drug, calcium channel antagonists and the IC50 values were determined. Changes in [Ca^2+] were monitored in an SLM 8100C spectrofluorometer (SLM/Aminco, Urbana, Ill.) using previously published methods, Haverstick, et al. (1998) Cell Calcium, 23: 361-368; Densmore, et al. (1996) Am. J. Physiol., 271:C1494-1503, incorporated herein by reference.
Calcium influx into the cell is suitably stimulated using either (1) a physiological ligand or (2) an endoplasmic reticulum (ER) ATPase inhibitor. Preferably, a physiological ligand is used to stimulate calcium influx into the cell.
Endoplasmic Reticulum (ER) ATPase inhibitor, as used herein, is any compound which stimulates the release of calcium from the endoplasmic reticulum into the cytoplasm, which, in turn, activates calmodulin, which, in turn, activates calcium entry into the cell (for review of ER ATPase inhibitors, see Thastrup, O, Agents and Actions (1990), 29:8-15; Inesi and Sagara, Archives of Biochem. and Biophys., 298:313-7 and Darby, et al., Biological Signals (1993), 2:293-304). Preferred ER ATPase inhibitors include cyclopiazonic acid (available from Sigma, St. Louis, Mo.) and thapsigargin (available from Sigma).
TH-1177 blocked capacitative Ca^2+ entry in human prostate cancer cells. In electrically non-excitable cells, Ca^2+ influx is triggered by release of Ca^2+ from its internal storage depot by a phenomenon that has been called “capacitative”Ca^2+ entry (Putney, J. W., Jr. (1986) Cell Calcium, 7:1-12; Haverstick, et al. (1993) Mol. Biol. Cell, 4: 173-184; Kohn, et al. Proc. Natl. Acad. Sci. USA, 92: 1307-1311, incorporated herein by reference). Capacitative entry can be initiated by treatment of cells with thapsigargin. Thapsigargin inhibits the Ca^2+-ATPase of the endoplasmic reticulum allowing uncompensated leak of Ca^2+ from this compartment into the cytosol thereby causing Ca^2+ entry in the absence of engagement of a specific receptor. (Thastrup, et al. (1990) Proc. Natl. Acad. Sci. USA, 87: 2466-2470; Takemura, et al. (1989) J. Biol. Chem. 264: 12266-12271, incorporated herein by reference).
The P2 purinergic receptor is linked to activation of the Ca^2+ entry pathway in many types of cells including prostate cancer cells (Fang, et al. (1992) J. Clin. Invest. 89: 191-196). […]

[4] = test system: Jurkat cells; test: Measurement of cellular proliferation, Jurkat cells; format: cell-based; settings: Jurkat, 48 hours; read-out: PROLIFERATION IC50 Jurkat
Experimental: as §1, §2, §3

[5] = test system: HCT-116 (colon cancer cell); test: Measurement of cellular proliferation, HCT-116 cells; format: cell-based; settings: HCT 116, 48 hours
Experimental: as §1, §2, §3

[6] = Toxicity in SCID mice without tumors; format: in vivo; settings: 180 mg/kd/d
Experimental: Four SCID mice without tumors were given TH-1177 at a dose of 180 mg/kd/d.

[7] = test system: MIA PaCa-2 (pancreatic cancer cell); test: Measurement of cellular proliferation, MIA PaCa-2 cells; format: cell-based; settings: MIA PaCa-2, 48 hours
Experimental: as §1, §2, §3

[8] = test system: NCI H460 (non-small cell lung cancer cells); test: Measurement of cellular proliferation, NCI H460 cells; format: cell-based; settings: NCI H460, 48 hours; read-out: PROLIFERATION IC50 NCl H460
Experimental: as §1, §2, §3

COc1ccc(CCN2CCC[C@H]2COC(c2ccccc2)c2ccc(Cl)cc2)cc1 (stereo partly shown) [TH-1177]
IC50 [1]: 32 µM | IC50 ([2]; FIG. 6B, 48 hours, read-out: IC50 for inhibition of PC3 proliferation): 14 µM | IC50 ([2]; PC-3, 48 hours, read-out: PROLIFERATION IC50 PC-3): 15 µM | IC50 ([3]; EGTA chelation of extracellular Ca2+ considered 100% inhibition, read-out: IC50 for blocking Ca2+ entry, LNCaP cells): 3 µM | Effect on increase in [Ca2+]i stimulated by thapsigargin ([3]; LNCaP, 300 nM thapsigargin, drug added before stimulus): dose dependent inhibition | Effect on rise in [Ca2+]i stimulated by ATP ([3]; LNCaP, 1 mM ATP, 10 μM TH-1177 added prior): inhibited | Effect on release of Ca2+ from the internal storage pool ([3]; LNCaP, EGTA in medium, 1 mM ATP): no effect | IC50 [4]: 8 µM | IC50 [5]: 37 µM | Gross findings at necropsy [6]: no gross abnormalities | Histological examination of kidney, adrenal gland, heart and liver [6]: within normal limits | IC50 [7]: 17 µM | IC50 [8]: 15 µM
